Key:
[1] = system: PGE2 release from normal human chondrocytes; experiment: IL-1β-induced PGE2 release from normal human chondrocyte monolayers, 48 h, competitive EIA; type: cell-based
Experimental: Mechanical stress and inflammation are thought to sustain catabolic cycles of extracellular matrix deterioration during osteoarthritis. In particular, PGE2 correlates with increased protease production and discomfort or pain in osteoarthritis.
After 48-hours, PGE2 release was evaluated by competitive EIA, and relative potency was calculated versus dose responses of Dex alone.
After 48 hours, PGE2 release was evaluated by competitive enzyme immunoassay (EIA), and relative potency was calculated versus Dex alone.
(§1) Lac is commonly thought to be simply an end-product of anaerobic glycolysis; however, it may also have immunomodulatory effects and promote protein modifications that alter gene expression. The goal of this experiment was to determine how Lac supplementation affects early-phase, inflammatory, and late-stage redifferentiation in chondrocyte models. To establish how Lac may influence inflammation early in osteoarthritis, monolayers of normal human chondrocytes were exposed to Lac dose responses of up to 100 millimolar, concurrently with 0.5 nanograms per milliliter IL-1β for 48 hours. The release of PGE2 was then quantified using competitive EIA. To investigate how Lac affects transcriptional programs in dedifferentiated osteoarthritic chondrocytes, monolayer cultures and micromass pellets were treated for 14 days with 100 millimolar final concentrations of Lac, with and without 10 nanograms per milliliter transforming growth factor beta 3 (TGF-β3). Total RNA was then isolated, and relative expression of SOX9 or Col2a1 was calculated using qRT-PCR, normalized to GAPDH.

[2] = system: SOX9 expression in dedifferentiated osteoarthritic chondrocytes; experiment: SOX9 relative expression in dedifferentiated osteoarthritic chondrocytes treated 14 days with Lac; type: cell-based, human
Excerpt: as §1, with “GAPDH. […] Lac may also have beneficial effects on osteoarthritic chondrocytes; 100 millimolar final Lac concentrations increased the relative expression of SOX9 and Col2a1 by 8-fold and 1600-fold, respectively, in monolayer cultures. […]” for “GAPDH.”

[3] = system: Col2a1 expression in dedifferentiated osteoarthritic chondrocytes; experiment: Col2a1 relative expression in dedifferentiated osteoarthritic chondrocytes treated 14 days with Lac; type: cell-based, human
Excerpt: as §1, with “GAPDH. […] Lac may also have beneficial effects on osteoarthritic chondrocytes; 100 millimolar final Lac concentrations increased the relative expression of SOX9 and Col2a1 by 8-fold and 1600-fold, respectively, in monolayer cultures. […] Furthermore, adding Lac with TGF-β3 to micromass cultures increased SOX9 and Col2a1 by 9-fold and 88-fold, respectively.” for “GAPDH.”

[4] = system: MMP3 expression in normal human dermal fibroblasts (NHDF); experiment: MMP3 mRNA in NHDF activated with IL-1β, 24 h, qRT-PCR; type: cell-based; settings: IL-1β 0.1 ng/ml, 100 mM Lac or 0.1 mM Dxp, IL-1β alone 3.5±1.7
Experimental: (§2) After 24 hours, total mRNA was isolated and delta-delta Cp relative expression was calculated versus untreated medium controls, normalized to the housekeeping gene, GAPDH. Statistical analysis was then conducted via t-test.

[5] = system: MMP12 expression in normal human dermal fibroblasts (NHDF); experiment: MMP12 mRNA in NHDF activated with IL-1β, 24 h, qRT-PCR; type: cell-based; settings: IL-1β 0.1 ng/ml, 100 mM Lac or 0.1 mM Dxp, IL-1β alone 17.8±12.3
Experimental: as §2

[6] = system: SOX9 expression in human osteoarthritic chondrocytes; experiment: SOX9 relative expression in high and low passage osteoarthritic chondrocytes, 7, 14 or 28 days; type: cell-based
Excerpt: Media was exchanged bi-weekly. […] SOX9 is a transcription factor vital to the development and maintenance of cartilage and is required for chondrogenesis. SOX9 promotes chondrocyte survival and transcriptionally activates cartilage-specific genes. SOX9 is repressed in hypertrophic chondrocytes (i.e. terminally differentiated osteoblast-like cells).

[7] = system: RUNX2 expression in human osteoarthritic chondrocytes; experiment: RUNX2 relative expression in low passage osteoarthritic chondrocytes, 7, 14 or 28 days; type: cell-based; settings: 7, 14, 28 days
Experimental: Media was exchanged bi-weekly. Chondrocytes cultured for 7 days, 14 days, or 28 days were analyzed to assess SOX9 and RUNX2 expression. SOX9 is a transcription factor vital to the development and maintenance of cartilage and is required for chondrogenesis. SOX9 promotes chondrocyte survival and transcriptionally activates cartilage-specific genes. SOX9 is repressed in hypertrophic chondrocytes (i.e. terminally differentiated osteoblast-like cells).
The RUNX2 expression is provided at 7, 14, and 28 days of culturing.

[8] = system: Col2a1 expression in low passage osteoarthritic chondrocytes; experiment: Col2a1 relative expression in low passage osteoarthritic chondrocytes; type: cell-based, human; settings: day 28
[9] = system: Col1a1 expression in human osteoarthritic chondrocytes; experiment: Col1a1 relative expression in human osteoarthritic chondrocytes (passage 5) cultured 27 days; type: cell-based; settings: 50 micromolar Dec, 0.1 μM Dxp, 100 mM Lac
Experimental: To evaluate the biological ramifications of the SOX9 to RUNX2 regulation mentioned above, delta-delta relative gene expression was assessed against medium controls, with normalization to GAPDH for both Col2a1 and Col1a1 in the samples tested with reference to Example 15. […] Moreover, treatment with 100 mM Lac increased collagen expression (49.88±4.31 and 1.63±0.20 for Col2a1 and Col1a1, respectively; FIGS. 51 and 52).

[10] = system: ACAN expression in human osteoarthritic chondrocytes; experiment: ACAN relative expression in human osteoarthritic chondrocytes (passage 5) cultured 27 days; type: cell-based; settings: 50 micromolar Dec, 0.1 μM Dxp, 100 mM Lac
Excerpt: Delta-delta relative gene expression was employed to determine ACAN regulation in the 27-day samples referenced in Examples 15 and 16. A 3.81±0.77-fold increase in ACAN expression in the cells after 27 days of Lac treatment was observed. […] Without being bound by theory, it is hypothesized that these findings indicate that metabolic management and/or metabolite feedback loops represent promising therapy targets for osteoarthritis. Results associated with Example 17 are depicted in FIG. 53.

[11] = system: Col2a1 expression in dedifferentiated osteoarthritic chondrocytes; experiment: Col2a1 relative expression in high passage osteoarthritic chondrocyte monolayer model with TGF-β; type: cell-based, human; settings: 14 days in culture with TGF-β; 28 mM Lac, 100 mm LA
Experimental: (§3) These compounds were tested in a high passage osteoarthritic chondrocyte monolayer model, alone or in combination with other agents, for both transcriptional regulation of standard markers and IL-1β-induced PGE2 production.

[12] = system: SOX9 expression in dedifferentiated osteoarthritic chondrocytes; experiment: SOX9 relative expression in high passage osteoarthritic chondrocyte monolayer model with TGF-β; type: cell-based, human; settings: 14 days in culture with TGF-β; 28 mM Lac, 100 mm LA
Experimental: as §3

[13] = 100 millimolar Lac with TGF-β3, 14 days, micromass cultures
[14] = 100 millimolar Lac, 14 days, monolayer cultures
[15] = low passage osteoarthritic chondrocytes, 7, 14, 28 days

In the case of `CC(O)C(=O)O` (stereo not drawn) [Lac, lactate], the “concentration with statistically significant effect on PGE2 release” value ([1]; IL-1β 48 h) was no less than 10 millimolar, the “inhibition of PGE2 release” value ([1]; Lac 100 millimolar, 0.5 ng/mL IL-1β, 48 h) was “complete inhibition” and the “increase in SOX9” value [2, 13] was 9 fold. For the same compound, the “increase in relative expression of SOX9” value [2, 14] was 8 fold, the “increase in Col2a1” value [3, 13] was 88 fold and the increase in collagen ([3]; 100 millimolar Lac, 14 days, micromass pellets) was 11 fold. For the same compound, the “increase in relative expression of Col2a1” value [3, 14] was 1600 fold, the “relative expression of MMP3” value [4] was 1.5±0.8 and the “relative expression of MMP12” value [5] was 2.2±0.8. The SOX9 expression ([6]; high passage, dedifferentiated osteoarthritic chondrocytes with TGF-β3, 14 days) was “increased SOX9 transcription”, the SOX9 expression [6, 15] was “temporal increase in SOX9” and the “ratio of SOX9/RUNX2” value [6, 15] was “temporally increased”. For the same compound, the RUNX2 expression [7] was “temporal decrease in RUNX2”, the “relative expression of Col2a1” value [8] was “elevated Col2a1 relative expression” and the “Col1a1 delta-delta relative gene expression” value [9] was 1.63±0.20 fold. For the same compound, the “ACAN delta-delta relative gene expression” value [10] was 3.81±0.77 fold, the “increase in Col2a1 compared to controls” value [11] was 30 fold and the “increase in SOX9 transcription” value [12] was 2 fold.

Source: patent publication US20250288599A1, “PHARMACEUTICAL COMPOSITIONS AND METHODS FOR TREATING OSTEOARTHRITIS” (INSIGNIA PHARMACEUTICALS, LLC, priority 2024, published 2025)
